Measurements from US8119627B2 (Sterix Limited, priority 2005, dated 2012).
Where a name gives a salt, the structure may show the parent alone.

Biological target: T1, human 17β-HSD3 (Homo sapiens, UniProt P37058)
T1 construct: expressed in transfected cells; host or cells: 293-EBNA cells (human), stably transfected
T1 sequence (P37058 1-310): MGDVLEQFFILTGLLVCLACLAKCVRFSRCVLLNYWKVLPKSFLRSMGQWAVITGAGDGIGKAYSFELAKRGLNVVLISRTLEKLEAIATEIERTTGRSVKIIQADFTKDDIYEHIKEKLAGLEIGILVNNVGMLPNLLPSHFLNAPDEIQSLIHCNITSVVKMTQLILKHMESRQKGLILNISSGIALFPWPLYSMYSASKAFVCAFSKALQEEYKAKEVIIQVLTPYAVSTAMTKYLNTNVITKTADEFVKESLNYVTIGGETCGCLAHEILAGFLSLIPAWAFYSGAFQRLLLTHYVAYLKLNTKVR
Test: 17β-Hydroxysteroid dehydrogenase Type 3 activity in stably transfected 293-EBNA cells (3H-androstenedione to testosterone conversion)
Assay type: cell-based
Details: 10 μM test compound; 293-EBNA cells stably transfected with 17β-HSD Type 3; 2-3 nM 3H-androstenedione; 2 hours
Description: Assay Protocol—17β-Hydroxysteroid Dehydrogenase Type 3 Activity in the Presence of Regulatory Agents
293-EBNA cells stably transfected with 17β-HSD Type 3 were plated at 50,000 cells/well in 24 well plates in complete growth medium. After 48 hours 2-3 nM ^3H-Androstenedione in assay medium (500 ml MEME medium with 5 ml 100× Pen/Strep, 5 ml 100×L-Glutamine, 5 ml 100×NEAA and 5 ml 7.5% sodium bicarbonate solution) was added with or without test compound at 1.5 ml/well (triplicate), and the cells incubated at 37° C.
Two hours later 1 ml medium was removed from each well and placed in a 125×16 mm glass test tube containing 25 μl of recovery solution (5000 dpm ^14C-Testosterone and 25 μg unlabelled Testosterone). Ether (4 ml) was added and the tubes vortexed at high speed for 2×30 sec. After the samples had settled into two phases they were snap-frozen in a dry ice/methanol bath. The upper organic phase was decanted into 75×12 mm tubes and evaporated to dryness under an airstream using a sample concentrator (TECHNE) at 40° C. The samples were resuspended in ether (8 drops, then a further 3), spotted onto silica 60 F254 20 cm×20 cm TLC plates, and separated using a 4:1 v/v dichloromethane:ethyl acetate mobile phase.
After drying the plates, the major spots were marked under a UV lamp, cut out, and placed in individual scintillation vials containing 0.5 ml methanol. These were then shaken lightly and allowed to stand for 15 min before adding 10 ml of EcoScint A (scintillation fluid) to each tube along with 0.5 ml assay medium, and counted in a scintillation spectrometer (Beckman) using a program for dual [^3H/^14C] isotopes. The number of cells/well was then counted using a Coulter counter (Beckman).
The inhibitory activity of the test compounds is then assessed by calculating the amount of product formed correcting for crossover between isotope counts, recovery, dilution and non-enzymatic degradation (fmol/hr/million cells) with and without inhibitor, (% inhibition).
Compounds were tested at 10 μM for inhibition of human 17β-HSD3 with typically […] human 293-EBNA cells/well.

First: CC(=O)N1CCC(C(=O)Nc2ccccc2Oc2cc(Cl)cc(Cl)c2)CC1 [STX1604, 1-Acetyl-piperidine-4-carboxylic acid [2-(3,5-dichloro-phenoxy)-phenyl]-amide]
Second: CC(=O)N1CCC(C(=O)Nc2ccccc2Oc2ccc(Cl)cc2Cl)CC1 [STX1614, 1-Acetylpiperidine-4-carboxylic acid [2-(2,4-dichlorophenoxy)phenyl]amide]
The inhibition at 10 µM of the first is lower: 20 to 60% for the first, over 60% for the second.

First: O=C(Nc1ccccc1Oc1ccc(Cl)cc1)C1CCN(C(=O)c2ccccc2)CC1 [STX1615, 1-Benzoylpiperidine-4-carboxylic acid [2-(4-chlorophenoxy)phenyl]amide]
Second: O=C(Nc1ccccc1Oc1ccc(C(F)(F)F)cc1)C1CCN(C(=O)c2ccccc2)CC1 [STX1607, 1-Benzoyl-piperidine-4-carboxylic acid [2-(4-trifluoromethyl-phenoxy)-phenyl]-amide]
The inhibition at 10 µM of the first is lower: under 20% for the first, 20 to 60% for the second.

CC(=O)N1CCC(C(=O)Nc2ccccc2Oc2ccc(OC(F)(F)F)cc2)CC1 [STX1624, 1-Acetyl-piperidine-4-carboxylic acid [2-(4-trifluoromethoxy-phenoxy)-phenyl]-amide] and CC(=O)N1CCC(C(=O)Nc2ccccc2Oc2ccc(C(F)(F)F)cc2)CC1 [STX1606, 1-Acetyl-piperidine-4-carboxylic acid [2-(4-trifluoromethyl-phenoxy)-phenyl]-amide] fall in the same range of inhibition at 10 µM: 20 to 60% for the first, 20 to 60% for the second.

Compared with O=C(c1ccco1)N1CCC(Nc2ccccc2Oc2ccc(Cl)cc2Cl)CC1 [STX1779, {4-[2-(2,4-Dichloro-phenoxy)-phenylamino]-piperidin-1-yl}-furan-2-yl-methanone], O=C(c1ccccc1)N1CCC(Nc2ccccc2Oc2ccc(Cl)cc2Cl)CC1 [STX1623, {4-[2-(2,4-Dichlorophenoxy)phenylamino]piperidin-1-yl}phenylmethanone] is higher in inhibition at 10 µM: 20 to 60% for the first, over 60% for the second.

O=C(c1ccccc1)N1CCC(Nc2ccccc2Oc2ccc(Cl)cc2)CC1 and CC(=O)N1CCC(Nc2ccccc2Oc2ccc(Cl)cc2)CC1 [STX1629, 1-{4-[2-(4-chlorophenoxy)phenylamino]-piperidin-1-yl}-ethanone] cannot be ordered by inhibition at 10 µM: over 60% for the first, over 60% for the second.

First: CC(=O)N1CCC(C(=O)Nc2ccccc2Oc2ccc(Cl)cc2)CC1 [STX1617, 1-Acetylpiperidine-4-carboxylic acid [2-(4-chlorophenoxy)phenyl]amide]
Second: CC(=O)N1CCCC(Nc2ccccc2Oc2ccc(Cl)cc2)CC1 (stereo not shown) [STX1762, 1-(4-(2-(4-chlorophenoxy)phenylamino)azepan-1-yl)ethanone]
The inhibition at 10 µM of the first is lower: 20 to 60% for the first, over 60% for the second.

CC(=O)NCCC(=O)Nc1ccccc1Oc1ccc(Cl)cc1 [STX1859, N-[2-(4-chlorophenoxy)phenyl]-3-acetamidopropanamide] and CC(=O)NC(CC(=O)Nc1ccccc1Oc1ccc(Cl)cc1)c1ccccc1 (stereo not shown) [STX1858, N-[2-(4-chlorophenoxy)phenyl]-3-acetamido-3-phenylpropanamide] cannot be ordered by inhibition at 10 µM: under 20% for the first, under 20% for the second.

Compared with CC(=O)N1CCC(Nc2ccccc2Oc2ccc(Cl)cc2)CC1c1ccccc1 (stereo not shown) [STX2419, 1-(4-(2-(4-Chlorophenoxy)phenylamino)-2-phenylpiperidin-1-yl)ethanone], CC(=O)N1CCC(Nc2ccccc2Oc2ccc(Cl)cc2)CC1C(C)C (stereo not shown) [STX2523, 1-(4-(2-(4-Chlorophenoxy)phenylamino)-2-iso-propylpiperidin-1-yl)ethanone] is higher in inhibition at 10 µM: 20 to 60% for the first, over 60% for the second.

CC(C)(C)C(=O)N1CCC(Nc2ccccc2Oc2ccc(Cl)cc2)CC1 [STX1631, 1-{4-[2-(4-chlorophenoxy)phenylamino]-piperidin-1-yl}-2,2-dimethylpropan-1-one] and CC(=O)N1CCC(Nc2ccccc2-c2ccc(Cl)cc2)CC1 [STX2044, 1-[4-(4′-Chlorobiphenyl-2-ylamino)piperidin-1-yl]ethanone] fall in the same range of inhibition at 10 µM: 20 to 60% for the first, 20 to 60% for the second.

O=C(Nc1ccccc1Oc1cc(Cl)cc(Cl)c1)C1CCN(C(=O)c2ccccc2)CC1 [STX1605, 1-Benzoyl-piperidine-4-carboxylic acid [2-(3,5-dichloro-phenoxy)-phenyl]-amide] and O=C(Nc1ccccc1Oc1ccc(Cl)cc1Cl)C1CCN(C(=O)c2ccccc2)CC1 [STX1613, 1-Benzoylpiperidine-4-carboxylic acid [2-(2,4-dichloro-phenoxy)phenyl]amide] fall in the same range of inhibition at 10 µM: 20 to 60% for the first, 20 to 60% for the second.

First: CC(=O)N1CCC(Nc2ccccc2Oc2ccc(Cl)cc2Cl)CC1 [STX1616, 1-{4-[2-(2,4-Dichlorophenoxy)phenylamino]piperidin-1-yl}ethanone]
Second: CC(=O)N1CCC(Nc2ccccc2-c2ccccc2Oc2ccccc2)CC1 [STX2048, 1-[4-(2′-Phenoxybiphenyl-2-ylamino)piperidin-1-yl]ethanone hydrochloride]
The inhibition at 10 µM of the first is higher: over 60% for the first, 20 to 60% for the second.

CC(=O)N1CC(N(Cc2ccccc2Oc2ccc(Cl)cc2)C(C)=O)Cc2ccccc21 (stereo not shown) [STX2525, N-(1-Acetyl-1,2,3,4-tetrahydro-quinolin-3-yl)-N-[2-(4-chloro-phenoxy)-benzyl]-acetamide] and CC(=O)N1CCC(Nc2ccccc2Oc2ccc(Cl)cc2)c2ccccc21 (stereo not shown) [STX2138] fall in the same range of inhibition at 10 µM: 20 to 60% for the first, 20 to 60% for the second.

Compared with O=C(Nc1ccccc1Oc1ccc(OC(F)(F)F)cc1)C1CCN(C(=O)c2ccccc2)CC1 [STX1625, 1-Benzoyl-piperidine-4-carboxylic acid [2-(4-trifluoromethoxy-phenoxy)-phenyl]-amide], CC(=O)N1CCCC(Nc2ccccc2Oc2ccc(Cl)cc2)c2ccccc21 (stereo not shown) [STX2171, 1-Acetyl-5-[2-(4-Chloro-phenoxy)-phenylamino]-2,3,4,5-tetrahydro-benzo[b]azepine] is higher in inhibition at 10 µM: 20 to 60% for the first, over 60% for the second.

System: not given
Test: not given
Details: not given

First: O=C(Nc1ccccc1Oc1ccc(Cl)cc1)C1CCN(C(=O)c2ccccc2)CC1 [STX1615, 1-Benzoylpiperidine-4-carboxylic acid [2-(4-chlorophenoxy)phenyl]amide]
Second: O=C(Nc1ccccc1Oc1ccc(Cl)cc1Cl)C1CCN(C(=O)c2ccccc2)CC1 [STX1613, 1-Benzoylpiperidine-4-carboxylic acid [2-(2,4-dichloro-phenoxy)phenyl]amide]
The melting point of the first is lower: 158 to 160 °C for the first, 176 to 177 °C for the second.

O=C(Nc1ccccc1Oc1ccc(Cl)cc1Cl)C1CCN(S(=O)(=O)c2cc(Cl)ccc2Cl)CC1 and CC(=O)N1CCC(C(=O)Nc2ccccc2Oc2ccc(Cl)cc2Cl)CC1 [STX1614, 1-Acetylpiperidine-4-carboxylic acid [2-(2,4-dichlorophenoxy)phenyl]amide] fall in the same range of melting point: 194 to 196 °C for the first, 194 to 196 °C for the second.

Compared with CC(=O)N1CCC(C(=O)Nc2ccccc2Oc2ccc(Cl)cc2)CC1 [STX1617, 1-Acetylpiperidine-4-carboxylic acid [2-(4-chlorophenoxy)phenyl]amide], CC(=O)N1CCC(Nc2ccccc2Oc2ccc(Cl)cc2Cl)CC1 [STX1616, 1-{4-[2-(2,4-Dichlorophenoxy)phenylamino]piperidin-1-yl}ethanone] is lower in melting point: 195 to 196 °C for the first, 145 to 146 °C for the second.

First: CC(C)C(=O)N1CCC(NC(=O)c2ccccc2Oc2ccc(Cl)cc2Cl)CC1
Second: O=C(NC1CCN(C(=O)c2ccccc2)CC1)c1ccccc1Oc1ccc(Cl)cc1Cl
The melting point of the first is lower: 51 to 54 °C for the first, 63 to 66 °C for the second.
